In patent US12139492B2 (Endotarget Inc., priority 2021, dated 2024):
Read-outs that look alike come from different tables or passages of the source.

Columns and labels:
[1] = molecular target: BTK (Homo sapiens, UniProt Q06187); experiment: Degradation of BTK protein in Namalwa cells (Western blot; DC50, Dmax); conditions: for DC50: read-out: DC50 (BTK degradation), concentration giving 50% reduction of BTK expression level, cell line not given; for Dmax: read-out: Dmax (BTK degradation); for degradation of BTK protein: Namalwa B lymphocyte cells, various concentrations, 24 hours, Western blot
Sequence of BTK (Q06187 whole entry): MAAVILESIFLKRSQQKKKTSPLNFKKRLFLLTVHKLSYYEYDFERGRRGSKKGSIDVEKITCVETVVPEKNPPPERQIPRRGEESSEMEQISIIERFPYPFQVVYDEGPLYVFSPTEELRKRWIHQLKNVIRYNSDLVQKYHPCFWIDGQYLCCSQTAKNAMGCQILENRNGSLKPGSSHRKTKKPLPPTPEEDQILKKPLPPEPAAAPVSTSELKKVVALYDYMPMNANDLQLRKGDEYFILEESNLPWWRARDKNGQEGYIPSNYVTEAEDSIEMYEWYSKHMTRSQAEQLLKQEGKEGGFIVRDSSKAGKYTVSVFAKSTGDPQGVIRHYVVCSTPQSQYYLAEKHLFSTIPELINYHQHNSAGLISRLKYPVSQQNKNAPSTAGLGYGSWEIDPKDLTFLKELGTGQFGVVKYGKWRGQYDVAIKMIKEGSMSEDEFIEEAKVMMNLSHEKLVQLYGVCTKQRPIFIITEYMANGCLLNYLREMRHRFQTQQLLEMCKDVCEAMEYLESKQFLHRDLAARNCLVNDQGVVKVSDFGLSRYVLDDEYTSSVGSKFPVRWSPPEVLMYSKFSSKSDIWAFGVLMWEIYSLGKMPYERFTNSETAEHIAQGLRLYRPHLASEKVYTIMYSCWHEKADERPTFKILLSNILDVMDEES

[2] = system: Mino cells; experiment: Antiproliferative effect, MTS cell viability assay, Mino cells; assay type: cell-based; conditions: Homo sapiens, Mino mantle cell lymphoma cells, read-out: IC50 (anti-proliferation) Mino cells
In short: (§1)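 MTS read-out, A490 of formazan from metabolically active cells; compound 0–10 μM (0, 0.001, 0.01, 0.1, 1, 10 μM), 72 h exposure.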

[3] = system: JeKo-1 cells; experiment: Antiproliferative effect, MTS cell viability assay, JeKo-1 cells; assay type: cell-based; conditions: Homo sapiens; JeKo-1 mantle cell lymphoma cells; read-out: IC50 (anti-proliferation) JeKO-1 cells
In short: as §1

| SMILES | DC50 [1] | Dmax [1] | IC50 ([2]; MINO) | IC50 [3] | degradation of BTK protein [1] | IC50 [2] |
| --- | --- | --- | --- | --- | --- | --- |
| Nc1ncnc2c1c(-c1ccc(Oc3ccccc3)cc1)nn2C1CCN(CC2CN(CC3CCN(c4ccc5c(c4)CN(C4CCC(=O)NC4=O)C5=O)CC3)C2)CC1 (centres unmarked) [Compound 440] | < 0.01 µM | > 90% | < 1 µM | 1 to 10 µM |  |  |
| Nc1ncnc2c1c(-c1ccc(Oc3ccccc3)cc1)nn2C1CCN(CC2CN(CC3CN(c4ccc5c(c4)C(=O)N(C4CCC(=O)NC4=O)C5=O)C3)C2)CC1 (centres unmarked) [Compound 441, 5-(3-((3-((4-(4-amino-3-(4-phenoxyphenyl)-1H-pyrazolo(3,4-d)pyrimidin-1-yl)piperidin-1-yl)methyl)azetidin-1-yl)methyl)azetidin-1-yl)-2-(2,6-dioxopiperidin-3-yl)isoindoline-1,3-dione] |  | < 50% | > 10 µM | > 10 µM | dose-dependent degradation |  |
| Nc1ncnc2c1c(-c1ccc(Oc3ccccc3)cc1)nn2C1CCN(CC2CN(CC3CN(c4ccc5c(c4)CN(C4CCC(=O)NC4=O)C5=O)C3)C2)CC1 (centres unmarked) [Compound 442, 3-(5-(3-((3-((4-(4-amino-3-(4-phenoxyphenyl)-1H-pyrazolo[3,4-d]pyrimidin-1-yl)piperidin-1-yl)methyl)azetidin-1-yl)methyl)azetidin-1-yl)-1-oxoisoindolin-2-yl)piperidine-2,6-dione] |  | < 50% | > 10 µM | > 10 µM |  |  |
| Nc1ncnc2c1c(-c1ccc(Oc3ccccc3)cc1)nn2C1CCN(CC2CN(CC3CCN(c4ccc5c(c4)C(=O)N(C4CCC(=O)NC4=O)C5=O)C3)C2)CC1 (centres unmarked) [Compound 443, 5-(3-((3-((4-(4-amino-3-(4-phenoxyphenyl)-1H-pyrazolo(3,4-d)pyrimidin-1-yl)piperidin-1-yl)methyl)azetidin-1-yl)methyl)pyrrolidin-1-yl)-2-(2,6-dioxopiperidin-3-yl)isoindoline-1,3-dione] | < 0.01 µM | > 90% | < 1 µM | < 1 µM | dose-dependent degradation |  |
| Nc1ncnc2c1c(-c1ccc(Oc3ccccc3)cc1)nn2C1CCN(CC2CN(C[C@H]3CCN(c4ccc5c(c4)C(=O)N(C4CCC(=O)NC4=O)C5=O)C3)C2)CC1 (stereo partly drawn) [Compound 443a, 5-((R)-3-((3-((4-(4-amino-3-(4-phenoxyphenyl)-1H-pyrazolo[3,4-d]pyrimidin-1-yl)piperidin-1-yl)methyl)azetidin-1-yl)methyl)pyrrolidin-1-yl)-2-(2,6-dioxopiperidin-3-yl)isoindoline-1,3-dione] | < 0.01 µM | > 90% | < 1 µM | < 1 µM |  |  |
| Nc1ncnc2c1c(-c1ccc(Oc3ccccc3)cc1)nn2C1CCN(CC2CN(C[C@@H]3CCN(c4ccc5c(c4)C(=O)N(C4CCC(=O)NC4=O)C5=O)C3)C2)CC1 (stereo partly drawn) [Compound 443b, 5-((S)-3-((3-((4-(4-amino-3-(4-phenoxyphenyl)-1H-pyrazolo[3,4-d]pyrimidin-1-yl)piperidin-1-yl)methyl)azetidin-1-yl)methyl)pyrrolidin-1-yl)-2-(2,6-dioxopiperidin-3-yl)isoindoline-1,3-dione] | < 0.01 µM | > 90% | < 1 µM | < 1 µM |  |  |
| Nc1ncnc2c1c(-c1ccc(Oc3ccccc3)cc1)nn2C1CCN(CC2CN(CC3CCN(c4ccc5c(c4)CN(C4CCC(=O)NC4=O)C5=O)C3)C2)CC1 (centres unmarked) [Compound 444, 3-(5-(3-((3-((4-(4-amino-3-(4-phenoxyphenyl)-1H-pyrazolo[3,4-d]pyrimidin-1-yl)piperidin-1-yl)methyl)azetidin-1-yl)methyl)pyrrolidin-1-yl)-1-oxoisoindolin-2-yl)piperidine-2,6-dione] | < 0.01 µM | > 90% | < 1 µM | < 1 µM |  |  |
| Nc1ncnc2c1c(-c1ccc(Oc3ccccc3)cc1)nn2C1CCN(CC2CCN(CC3CCN(c4ccc5c(c4)C(=O)N(C4CCC(=O)NC4=O)C5=O)CC3)C2)CC1 (centres unmarked) [Compound 445, 5-(4-((3-((4-(4-amino-3-(4-phenoxyphenyl)-1H-pyrazolo(3,4-d)pyrimidin-1-yl)piperidin-1-yl)methyl)pyrrolidin-1-yl)methyl)piperidin-1-yl)-2-(2,6-dioxopiperidin-3-yl)isoindoline-1,3-dione] | 0.01 to 0.05 µM | > 90% | 1 to 10 µM | 1 to 10 µM | dose-dependent degradation |  |
| Nc1ncnc2c1c(-c1ccc(Oc3ccccc3)cc1)nn2C1CCN(C[C@H]2CCN(CC3CCN(c4ccc5c(c4)C(=O)N(C4CCC(=O)NC4=O)C5=O)CC3)C2)CC1 (stereo partly drawn) [Compound 445a, 5-(4-(((R)-3-((4-(4-amino-3-(4-phenoxyphenyl)-1H-pyrazolo[3,4-d]pyrimidin-1-yl)piperidin-1-yl)methyl)pyrrolidin-1-yl)methyl)piperidin-1-yl)-2-(2,6-dioxopiperidin-3-yl)isoindoline-1,3-dione] | 0.01 to 0.05 µM | > 90% | 1 to 10 µM | 1 to 10 µM |  |  |
| Nc1ncnc2c1c(-c1ccc(Oc3ccccc3)cc1)nn2C1CCN(C[C@@H]2CCN(CC3CCN(c4ccc5c(c4)C(=O)N(C4CCC(=O)NC4=O)C5=O)CC3)C2)CC1 (stereo partly drawn) [Compound 445b, 5-(4-(((S)-3-((4-(4-amino-3-(4-phenoxyphenyl)-1H-pyrazolo[3,4-d]pyrimidin-1-yl)piperidin-1-yl)methyl)pyrrolidin-1-yl)methyl)piperidin-1-yl)-2-(2,6-dioxopiperidin-3-yl)isoindoline-1,3-dione] | 0.01 to 0.05 µM | > 90% | 1 to 10 µM | 1 to 10 µM |  |  |
| Nc1ncnc2c1c(-c1ccc(Oc3ccccc3)cc1)nn2C1CCN(CC2CCN(CC3CCN(c4ccc5c(c4)CN(C4CCC(=O)NC4=O)C5=O)CC3)C2)CC1 (centres unmarked) [Compound 446, 3-(5-(4-((3-((4-(4-amino-3-(4-phenoxyphenyl)-1H-pyrazolo(3,4-d)pyrimidin-1-yl)piperidin-1-yl)methyl)pyrrolidin-1-yl)methyl)piperidin-1-yl)-1-oxoisoindolin-2-yl)piperidine-2,6-dione] | 0.01 to 0.05 µM | > 90% |  | 1 to 10 µM | dose-dependent degradation | 1 to 10 µM |
| Nc1ncnc2c1c(-c1ccc(Oc3ccccc3)cc1)nn2C1CCN(C[C@H]2CCN(CC3CCN(c4ccc5c(c4)CN(C4CCC(=O)NC4=O)C5=O)CC3)C2)CC1 (stereo partly drawn) [Compound 446a, 3-(5-(4-(((R)-3-((4-(4-amino-3-(4-phenoxyphenyl)-1H-pyrazolo[3,4-d]pyrimidin-1-yl)piperidin-1-yl)methyl)pyrrolidin-1-yl)methyl)piperidin-1-yl)-1-oxoisoindolin-2-yl)piperidine-2,6-dione] | 0.01 to 0.05 µM | > 90% | 1 to 10 µM | 1 to 10 µM |  |  |
| Nc1ncnc2c1c(-c1ccc(Oc3ccccc3)cc1)nn2C1CCN(C[C@@H]2CCN(CC3CCN(c4ccc5c(c4)CN(C4CCC(=O)NC4=O)C5=O)CC3)C2)CC1 (stereo partly drawn) [Compound 446b, 3-(5-(4-(((S)-3-((4-(4-amino-3-(4-phenoxyphenyl)-1H-pyrazolo[3,4-d]pyrimidin-1-yl)piperidin-1-yl)methyl)pyrrolidin-1-yl)methyl)piperidin-1-yl)-1-oxoisoindolin-2-yl)piperidine-2,6-dione] | 0.01 to 0.05 µM | > 90% | < 1 µM | 1 to 10 µM |  |  |
| Nc1ncnc2c1c(-c1ccc(Oc3ccccc3)cc1)nn2C1CCN(CC2CCN(CC3CCN(c4ccc5c(c4)C(=O)N(C4CCC(=O)NC4=O)C5=O)C3)C2)CC1 (centres unmarked) [Compound 447, 5-(3-((3-((4-(4-amino-3-(4-phenoxyphenyl)-1H-pyrazolo(3,4-d)pyrimidin-1-yl)piperidin-1-yl)methyl)pyrrolidin-1-yl)methyl)pyrrolidin-1-yl)-2-(2,6-dioxopiperidin-3-yl)isoindoline-1,3-dione] | 0.01 to 0.05 µM | > 90% | 1 to 10 µM | 1 to 10 µM | dose-dependent degradation |  |
| Nc1ncnc2c1c(-c1ccc(Oc3ccccc3)cc1)nn2C1CCN(C[C@H]2CCN(C[C@H]3CCN(c4ccc5c(c4)C(=O)N(C4CCC(=O)NC4=O)C5=O)C3)C2)CC1 (stereo partly drawn) [Compound 447a, 5-((R)-3-(((R)-3-((4-(4-amino-3-(4-phenoxyphenyl)-1H-pyrazolo[3,4-d]pyrimidin-1-yl)piperidin-1-yl)methyl)pyrrolidin-1-yl)methyl)pyrrolidin-1-yl)-2-(2,6-dioxopiperidin-3-yl)isoindoline-1,3-dione] | 0.01 to 0.05 µM | > 90% | 1 to 10 µM | 1 to 10 µM |  |  |
| Nc1ncnc2c1c(-c1ccc(Oc3ccccc3)cc1)nn2C1CCN(C[C@H]2CCN(C[C@@H]3CCN(c4ccc5c(c4)C(=O)N(C4CCC(=O)NC4=O)C5=O)C3)C2)CC1 (stereo partly drawn) [Compound 447b, 5-((S)-3-(((R)-3-((4-(4-amino-3-(4-phenoxyphenyl)-1H-pyrazolo[3,4-d]pyrimidin-1-yl)piperidin-1-yl)methyl)pyrrolidin-1-yl)methyl)pyrrolidin-1-yl)-2-(2,6-dioxopiperidin-3-yl)isoindoline-1,3-dione] | < 0.01 µM | > 90% | 1 to 10 µM | 1 to 10 µM |  |  |
| Nc1ncnc2c1c(-c1ccc(Oc3ccccc3)cc1)nn2C1CCN(C[C@@H]2CCN(C[C@@H]3CCN(c4ccc5c(c4)C(=O)N(C4CCC(=O)NC4=O)C5=O)C3)C2)CC1 (stereo partly drawn) [Compound 447c, 5-((S)-3-(((S)-3-((4-(4-amino-3-(4-phenoxyphenyl)-1H-pyrazolo[3,4-d]pyrimidin-1-yl)piperidin-1-yl)methyl)pyrrolidin-1-yl)methyl)pyrrolidin-1-yl)-2-(2,6-dioxopiperidin-3-yl)isoindoline-1,3-dione] | < 0.01 µM | > 90% | 1 to 10 µM | 1 to 10 µM |  |  |
